Measured values from US20240174727A1, “LONG-ACTING NATRIURETIC PEPTIDES AND USES THEREOF” (Eli Lilly and Company, priority 2022, published 2024).
Positions count from the first letter of the chain named. Numbered stars: 1 amine (or outer) side, 2 acyl side, 3 side chain; on linkers, the order of the positions; unused ones are H or OH. Bridge positions count the residues as written; N and C are the ends. Square brackets hold non-standard residues; d marks the D form. * marks the point of attachment. PEG24 = NCCOCCOCCOCCOCCOCCOCCOCCOCCOCCOCCOCCOCCOCCOCCOCCOCCOCCOCCOCCOCCOCCOCCOCCOCCC(=O)O; C20 diacid = O=C(O)CCCCCCCCCCCCCCCCCCC(=O)*; γGlu = O=C(O)[C@H](CCC(=O)[*:2])N[*:1]; CH2 = C([*:1])[*:2]; βAla = NCCC(=O)O

Columns and labels:
[1] = tested on: plasma cGMP; experiment: In vivo monkey studies, plasma cGMP ELISA; parameters: species or system male cynomolgus monkeys; conditions: for Net cGMP (nM) Change from Baseline 0.083 h: 0.083 h postdose; for Net cGMP (nM) Change from Baseline 0.083 h / Net cGMP (nM) Change from Baseline 0.25 h / Net cGMP (nM) Change from Baseline 0.5 h / Net cGMP (nM) Change from Baseline 1 h / Net cGMP (nM) Change from Baseline 2 h / Net cGMP (nM) Change from Baseline 4 h / Net cGMP (nM) Change from Baseline 8 h / Net cGMP (nM) Change from Baseline 12 h / Net cGMP (nM) Change from Baseline 24 h / Net cGMP (nM) Change from Baseline 36 h / Net cGMP (nM) Change from Baseline 48 h / Net cGMP (nM) Change from Baseline 72 h / Net cGMP (nM) Change from Baseline 96 h / Net cGMP (nM) Change from Baseline 120 h / Net cGMP (nM) Change from Baseline 144 h / Net cGMP (nM) Change from Baseline 168 h: monkey plasma; for Net cGMP (nM) Change from Baseline 0.25 h: 0.25 h postdose; for Net cGMP (nM) Change from Baseline 0.5 h: 0.5 h postdose; for Net cGMP (nM) Change from Baseline 1 h: 1 h postdose; for Net cGMP (nM) Change from Baseline 2 h: 2 h postdose; for Net cGMP (nM) Change from Baseline 4 h: 4 h postdose; for Net cGMP (nM) Change from Baseline 8 h: 8 h postdose; for Net cGMP (nM) Change from Baseline 12 h: 12 h postdose; for Net cGMP (nM) Change from Baseline 24 h: 24 h postdose; for Net cGMP (nM) Change from Baseline 36 h: 36 h postdose; for Net cGMP (nM) Change from Baseline 48 h: 48 h postdose; for Net cGMP (nM) Change from Baseline 72 h: 72 h postdose; for Net cGMP (nM) Change from Baseline 96 h: 96 h postdose; for Net cGMP (nM) Change from Baseline 120 h: 120 h postdose; for Net cGMP (nM) Change from Baseline 144 h: 144 h postdose; for Net cGMP (nM) Change from Baseline 168 h: 168 h postdose; for net cGMP levels (result in words): monkeys, single SC dose, plasma
Method: In vivo monkey studies were conducted as described in detail below. Young adult-to-adult male cynomolgus monkeys were given a single dose subcutaneously (SC). Blood was collected predose and at various pre-determined timepoints throughout the study period. Aliquot of cynomolgus monkey plasma was received for cyclic cGMP (cGMP) measurement and stored at −80° C. prior to use.
Control plasma was made for determining the recovery rate of spike-in cGMP using Enzo cGMP complete ELISA kit (Enzo Life Sciences, Inc, Farmingdale, NY, cat no. ADI-901-164). Briefly, blood from male Sprague Dawley rats (Inotiv, Indianapolis, IN), about 7 months old, was collected in a BD Vacutainer EDTA tube (Becton Dickinson, Franklin Lakes, NJ, cat no. BD-367856) with volume of approximate 4 mL through retro orbital bleeding. Plasma was prepared by spinning the tube in an Eppendorf Refrigerated Centrifuge 5810R (Brinkman Instruments, Inc, Westbury, NY) at 3500 rpm (3000×g) for 10 min at 4° C. Plasma was collected as Positive Control plasma. Cyclic GMP (cGMP standard from Enzo cGMP complete ELISA kit) was added to the positive control plasma at a final concentration of additional 40 nM. Positive Control and Spiked-in Control plasma were aliquoted and stored at −80° C.
The cGMP content was measured using the Enzo cGMP complete ELISA kit following the manufacturer's directions with modifications as described below. The cGMP standards provided in the kit were diluted 1:3 ranging from 50 nM to 0.023 nM in 1× assay buffer that was diluted in water from 2× assay buffer provided in the kit. The cGMP standards ([…]) were transferred to a 96-well polypropylene plate (Thermo Scientific, cat no. 442587).
Plasma samples were thawed from −80° C. and diluted 1:20 in 1× assay buffer in the above plate with a final volume of 150 μL. Assay buffer was added (150 μL) for both a non-specific binding control (in the absence of cGMP antibody) and a maximum binding control (in the absence of competing cGMP) in duplicate wells. Positive Control and Spiked-in Control plasma were diluted 1:20 in 1× assay buffer with a final volume of 150 μL in duplicate wells of the above plate. All diluted plasma was mixed by pipetting up and down several times.
Acetylation reagent mix was prepared by adding 1-part of acetic anhydride into 2-parts of triethylamine provided in the kit and mixing well using Vortex (Scientific Industries, Inc, Bohemia, NY). All controls, standards, and plasma samples were acetylated by adding 15 μL of acetylation reagent mix into the plate, one column at a time, and shaking for 1 min on a Titer Plate Shaker (Lab-Line Instrument, Inc., Melrose Park, IL) at room temperature. The plate was shaken for an additional 1 min following the acetylation of the last column to ensure the reaction was completed.
Acetylated controls, standard and plasma samples were transferred (100 μL) to an ELISA plate (n=1). Then 50 μL of cGMP conjugate were added to each well followed by the addition of 50 μL cGMP antibody to each well except for two non-specific binding wells, in which 50 μL of 1× assay buffer were added. The plate was then sealed and shaken for 2 h at room temperature on the plate shaker. Following this incubation, the plate was washed five times using 200 μL of 1× wash buffer diluted in water from 5× wash buffer provided in the kit. Then, 200 μL of para-Nitrophenylphosphate (pNpp) were added to each well. The plate was sealed with a new plate sealer and shaken in dark for 1 h at room temperature on the plate shaker. Finally, 50 μL of stop solution were added to each well to stop the enzyme reaction. The plate was then read at 405 nm using SpectraMax Plus (Molecular Devices, San Jose, CA).
The mean absorbance at 405 nm (O.D. 405 nm) for the non-specific binding controls was subtracted from the O.D. 405 nm of all samples. The subtracted O.D. 405 nm of all samples were then normalized with the mean subtracted O.D. 405 nm of the maximum binding controls as B/B0%. […]

[2] = biological target: T1, human NPRA (human, UniProt P16066 33-1061); experiment: cell-based or functional assay
T1 sequence (looked up): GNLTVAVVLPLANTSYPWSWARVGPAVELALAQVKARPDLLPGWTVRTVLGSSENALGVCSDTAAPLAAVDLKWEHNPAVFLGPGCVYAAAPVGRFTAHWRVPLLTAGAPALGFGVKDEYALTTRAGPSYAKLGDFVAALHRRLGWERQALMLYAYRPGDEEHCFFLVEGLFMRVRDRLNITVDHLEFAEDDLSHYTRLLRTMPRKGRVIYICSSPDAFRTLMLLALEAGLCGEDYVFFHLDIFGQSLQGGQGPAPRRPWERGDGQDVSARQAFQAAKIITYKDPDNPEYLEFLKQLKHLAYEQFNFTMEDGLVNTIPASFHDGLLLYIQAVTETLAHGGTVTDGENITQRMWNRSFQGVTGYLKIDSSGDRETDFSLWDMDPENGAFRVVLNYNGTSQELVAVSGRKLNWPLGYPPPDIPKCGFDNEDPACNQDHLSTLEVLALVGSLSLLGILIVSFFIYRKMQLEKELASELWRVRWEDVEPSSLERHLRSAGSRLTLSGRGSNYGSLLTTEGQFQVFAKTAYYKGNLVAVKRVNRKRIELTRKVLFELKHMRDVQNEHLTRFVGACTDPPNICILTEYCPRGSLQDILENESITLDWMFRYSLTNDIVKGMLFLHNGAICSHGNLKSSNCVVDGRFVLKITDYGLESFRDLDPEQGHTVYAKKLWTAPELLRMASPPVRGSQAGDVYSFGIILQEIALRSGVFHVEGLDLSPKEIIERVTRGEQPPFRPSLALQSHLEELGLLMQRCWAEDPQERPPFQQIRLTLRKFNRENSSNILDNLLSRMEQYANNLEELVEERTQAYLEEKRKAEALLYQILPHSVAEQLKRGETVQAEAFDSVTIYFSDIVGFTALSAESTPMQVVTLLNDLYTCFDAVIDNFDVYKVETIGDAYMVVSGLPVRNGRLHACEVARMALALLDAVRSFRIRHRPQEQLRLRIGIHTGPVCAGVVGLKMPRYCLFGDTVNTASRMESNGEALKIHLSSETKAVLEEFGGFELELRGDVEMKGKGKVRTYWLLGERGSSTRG

Molecule: {C20 diacid-γGlu}-EKEKEKG[PEG24]EK[βAla]RSSCFGKRIDRIGHYSGLGCPSFRHGSPSSGAPPPS-NH2 (linker 15-31 via CH2) [Example 106]
- Net cGMP (nM) Change from Baseline 0.083 h ([1]; dose 100 nmol/kg): 3.54 nM
- Net cGMP (nM) Change from Baseline 0.25 h ([1]; dose 100 nmol/kg): 19.8 nM
- Net cGMP (nM) Change from Baseline 0.5 h ([1]; dose 100 nmol/kg): 25.25 nM
- Net cGMP (nM) Change from Baseline 1 h ([1]; dose 100 nmol/kg): 24.83 nM
- Net cGMP (nM) Change from Baseline 2 h ([1]; dose 100 nmol/kg): 26.38 nM
- Net cGMP (nM) Change from Baseline 4 h ([1]; dose 100 nmol/kg): 26.16 nM
- Net cGMP (nM) Change from Baseline 8 h ([1]; dose 100 nmol/kg): 14.03 nM
- Net cGMP (nM) Change from Baseline 12 h ([1]; dose 100 nmol/kg): 17.64 nM
- Net cGMP (nM) Change from Baseline 24 h ([1]; dose 100 nmol/kg): 9.38 nM
- Net cGMP (nM) Change from Baseline 36 h ([1]; dose 100 nmol/kg): 12.13 nM
- Net cGMP (nM) Change from Baseline 48 h ([1]; dose 100 nmol/kg): 8.71 nM
- Net cGMP (nM) Change from Baseline 72 h ([1]; dose 100 nmol/kg): 5.67 nM
- Net cGMP (nM) Change from Baseline 96 h ([1]; dose 100 nmol/kg): 6.4 nM
- Net cGMP (nM) Change from Baseline 120 h ([1]; dose 100 nmol/kg): 7.88 nM
- Net cGMP (nM) Change from Baseline 144 h ([1]; dose 100 nmol/kg): 7.54 nM
- Net cGMP (nM) Change from Baseline 168 h ([1]; dose 100 nmol/kg): 7.66 nM
- net cGMP levels (result in words) [1]: increased net cGMP levels

Molecule: (BFAEN2-γGlu)-KEKEKG-PEG24-EK-βAla-RSS[CFGGKIDRIGHYSGLGC]PSFRHGSPSSGAPPPS-NH2 (EKXRSSCFGGKIDRIGHYSGLGCPSFRHGSPSSGAPPPS; BFAEN2-γGlu, PEG24, C-terminal amide; MOD_RES 1 N-terminal modified with (BFAEN2-beta-Ala)-KEKEKG-PEG24-; wherein BFAEN2 is Bifurcated Fatty Acid Enantiomer 2; SITE 3 X at position 3 is beta-Alanine; MOD_RES 39 Amidation; DISULFID 7..23 Intrachain thioacetal bond) [Example 145]
- Net cGMP (nM) Change from Baseline 0.083 h ([1]; dose 25 nmol/kg): -0.82 nM
- Net cGMP (nM) Change from Baseline 0.25 h ([1]; dose 25 nmol/kg): 2.94 nM
- Net cGMP (nM) Change from Baseline 0.5 h ([1]; dose 25 nmol/kg): 4.37 nM
- Net cGMP (nM) Change from Baseline 1 h ([1]; dose 25 nmol/kg): 3.19 nM
- Net cGMP (nM) Change from Baseline 2 h ([1]; dose 25 nmol/kg): 8.88 nM
- Net cGMP (nM) Change from Baseline 4 h ([1]; dose 25 nmol/kg): 11.23 nM
- Net cGMP (nM) Change from Baseline 8 h ([1]; dose 25 nmol/kg): 17.87 nM
- Net cGMP (nM) Change from Baseline 12 h ([1]; dose 25 nmol/kg): 22.09 nM
- Net cGMP (nM) Change from Baseline 24 h ([1]; dose 25 nmol/kg): 24.61 nM
- Net cGMP (nM) Change from Baseline 36 h ([1]; dose 25 nmol/kg): 31.53 nM
- Net cGMP (nM) Change from Baseline 48 h ([1]; dose 25 nmol/kg): 21.81 nM
- Net cGMP (nM) Change from Baseline 72 h ([1]; dose 25 nmol/kg): 21 nM
- Net cGMP (nM) Change from Baseline 96 h ([1]; dose 25 nmol/kg): 14.82 nM
- Net cGMP (nM) Change from Baseline 120 h ([1]; dose 25 nmol/kg): 14.4 nM
- Net cGMP (nM) Change from Baseline 144 h ([1]; dose 25 nmol/kg): 11.99 nM
- Net cGMP (nM) Change from Baseline 168 h ([1]; dose 25 nmol/kg): 5.89 nM
- net cGMP levels (result in words) [1]: increased net cGMP levels

B1: Example 23 (peptide)
peptide: XEKEKEKGSXRRSSCFGGRIDRIGAQSGLGCPSFRXGGPSSGAPPPS
modifications: HOOC-(CH2)18-CO-(γGlu)-EKEKEKGS-4Pal-RRSS[CFGGRIDRIGAQSGLGC]PSFR-4Pal-GGPSSGAPPPS-NH2; disulfide linkage between the bracketed Cys
- cGMP Assay (EC50, pM) w/Casein [2]: 3490 pM

B2: Example 35 (peptide)
peptide: B1 peptide with R11K, A25H, X36H
modifications: HOOC-(CH2)18-CO-(γGlu)-EKEKEKGS-4Pal-KRSS[CFGGRIDRIGHQSGLGC]PSFRHGGPSSGAPPPS-NH2; disulfide linkage between the bracketed Cys
- cGMP Assay (EC50, pM) w/Casein [2]: 118 pM

B3: Example 36 (peptide)
peptide: B1 peptide with R19K, A25H, X36H
modifications: HOOC-(CH2)18-CO-(γGlu)-EKEKEKGS-4Pal-RRSS[CFGGKIDRIGHQSGLGC]PSFRHGGPSSGAPPPS-NH2; disulfide linkage between the bracketed Cys
- cGMP Assay (EC50, pM) w/Casein [2]: 118 pM

B4: Example 45 (peptide)
peptide: XEKEKEKGEKGRSSCFGGKIDRIGHYSGLGCPSFRHGGPSSGAPPPS
modifications: HOOC-(CH2)18-CO-(γGlu)-EKEKEKGEKGRSS[CFGGKIDRIGHYSGLGC]PSFRHGGPSSGAPPPS-NH2; disulfide linkage between the bracketed Cys
- cGMP Assay (EC50, pM) w/BSA [2]: 25200 pM
